Test results taken from PubChem BioAssay (NCI).
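The compound was tested at five concentrations on cells cultured in 96-well plates, with a 48-hour exposure period. GI50 = concentration required for 50% inhibition of growth. Definition used: TGI = concentration required for complete inhibition of growth.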

Columns and labels:
Test in all cases: NCI tumour cell line growth inhibition, 48 h
[1] = test system: SF-539 CNS
[2] = test system: TK-10 renal
[3] = test system: OVCAR-8 ovarian
[4] = test system: SN12C renal
[5] = test system: A498 renal
[6] = test system: SNB-75 CNS
[7] = test system: SK-MEL-5 melanoma
[8] = test system: IGROV1 ovarian
[9] = test system: SW-620 colon
[10] = test system: M14 melanoma
[11] = test system: HL-60(TB) leukemia
[12] = test system: 786-0 renal
[13] = test system: HCT-116 colon
[14] = test system: SR leukemia
[15] = test system: RXF 393 renal
[16] = test system: SK-MEL-2 melanoma
[17] = test system: NCI-H460 lung
[18] = test system: OVCAR-4 ovarian
[19] = test system: UACC-257 melanoma
[20] = test system: NCI-H23 lung
[21] = test system: HT29 colon
[22] = test system: NCI-H522 lung
[23] = test system: SK-MEL-28 melanoma
[24] = test system: CCRF-CEM leukemia
[25] = test system: NCI-H226 lung
[26] = test system: SK-OV-3 ovarian
[27] = test system: UO-31 renal
[28] = test system: MDA-MB-231 breast
[29] = test system: DU-145 prostate
[30] = test system: MALME-3M melanoma
[31] = test system: KM12 colon
[32] = test system: OVCAR-5 ovarian
[33] = test system: CAKI-1 renal
[34] = test system: HS 578T breast
[35] = test system: ACHN renal
[36] = test system: MDA-MB-435
[37] = test system: SNB-19 CNS
[38] = test system: A549 NSCLC
[39] = test system: UACC-62 melanoma
[40] = test system: COLO 205 colon
[41] = test system: SF-268 CNS
[42] = test system: EKVX NSCLC
[43] = test system: K-562 leukemia
[44] = test system: HOP-62 NSCLC
[45] = test system: U251 CNS
[46] = test system: HOP-92 NSCLC
[47] = test system: SF-295 CNS
[48] = test system: MCF7 breast
[49] = test system: HCC-2998 colon
[50] = test system: MOLT-4 leukemia
[51] = test system: NCI/ADR-RES ovarian
[52] = test system: BT-549 breast
[53] = test system: HCT-15 colon
[54] = test system: PC-3 prostate
[55] = test system: T-47D breast

Compound: NS(=O)(=O)c1ccc(Nc2nc(N/N=C/c3ccc(C(F)(F)F)cc3)nc(Nc3ccccc3)n2)cc1
- GI50 [1]: 1.86 µM
- TGI [1]: 4.23 µM
- GI50 [2]: 3.45 µM
- TGI [2]: 10.5 µM
- GI50 [3]: 2.82 µM
- TGI [3]: 10.4 µM
- GI50 [4]: 3 µM
- TGI [4]: 10.2 µM
- GI50 [5]: 2.61 µM
- TGI [5]: 9.26 µM
- GI50 [6]: 2.05 µM
- TGI [6]: 6.24 µM
- GI50 [7]: 1.74 µM
- TGI [7]: 3.18 µM
- GI50 [8]: 2.64 µM
- TGI [8]: 7.42 µM
- GI50 [9]: 3.3 µM
- TGI [9]: 11.1 µM
- GI50 [10]: 2.51 µM
- TGI [10]: 6.45 µM
- GI50 [11]: 3.59 µM
- TGI [11]: > 100 µM
- GI50 [12]: 2.22 µM
- TGI [12]: 5.2 µM
- GI50 [13]: 3.1 µM
- TGI [13]: 10.3 µM
- GI50 [14]: 3.07 µM
- TGI [14]: 15.3 µM
- GI50 [15]: 1.82 µM
- TGI [15]: 4.65 µM
- GI50 [16]: 2.17 µM
- TGI [16]: 5 µM
- GI50 [17]: 3.02 µM
- TGI [17]: 8.89 µM
- GI50 [18]: 3.69 µM
- TGI [18]: 64.8 µM
- GI50 [19]: 2.42 µM
- TGI [19]: 7.26 µM
- GI50 [20]: 1.95 µM
- TGI [20]: 4.25 µM
- GI50 [21]: 2.44 µM
- TGI [21]: 5.78 µM
- GI50 [22]: 2.66 µM
- TGI [22]: 7.77 µM
- GI50 [23]: 2.44 µM
- TGI [23]: 7.37 µM
- GI50 [24]: 3 µM
- TGI [24]: > 100 µM
- GI50 [25]: 2.45 µM
- TGI [25]: 6.22 µM
- GI50 [26]: 3.66 µM
- TGI [26]: 33.8 µM
- GI50 [27]: 1.88 µM
- TGI [27]: 4.64 µM
- GI50 [28]: 2.31 µM
- TGI [28]: 5.52 µM
- GI50 [29]: 3.31 µM
- TGI [29]: 11 µM
- GI50 [30]: 1.87 µM
- TGI [30]: 3.9 µM
- GI50 [31]: 2.38 µM
- TGI [31]: 5.61 µM
- GI50 [32]: 2.96 µM
- TGI [32]: 11 µM
- GI50 [33]: 3.05 µM
- TGI [33]: 9.93 µM
- GI50 [34]: 3.07 µM
- TGI [34]: > 100 µM
- GI50 [35]: 2.68 µM
- TGI [35]: 7.59 µM
- GI50 [36]: 2.07 µM
- TGI [36]: 4.44 µM
- GI50 [37]: 3.46 µM
- TGI [37]: 11.4 µM
- GI50 [38]: 3.11 µM
- TGI [38]: 11.6 µM
- GI50 [39]: 2.35 µM
- TGI [39]: 5.33 µM
- GI50 [40]: 1.86 µM
- TGI [40]: 4.37 µM
- GI50 [41]: 3.51 µM
- TGI [41]: 14 µM
- GI50 [42]: 2.62 µM
- TGI [42]: 8.51 µM
- GI50 [43]: 3.51 µM
- TGI [43]: 12.8 µM
- GI50 [44]: 2.15 µM
- TGI [44]: 5.78 µM
- GI50 [45]: 2.68 µM
- TGI [45]: 11.3 µM
- GI50 [46]: 2.38 µM
- TGI [46]: 6.31 µM
- GI50 [47]: 1.92 µM
- TGI [47]: 4.07 µM
- GI50 [48]: 2.18 µM
- TGI [48]: 7.37 µM
- GI50 [49]: 2.97 µM
- TGI [49]: 9.04 µM
- GI50 [50]: 3.06 µM
- TGI [50]: 14.4 µM
- GI50 [51]: 12.3 µM
- TGI [51]: 75.7 µM
- GI50 [52]: 2.79 µM
- TGI [52]: 9.48 µM
- GI50 [53]: 2.32 µM
- TGI [53]: 6.48 µM
- GI50 [54]: 2.8 µM
- TGI [54]: 9.72 µM
- GI50 [55]: 2.48 µM
- TGI [55]: 9.78 µM
